Reference: patent publication US20070048372A1, “Method for treating non-inflammatory osteoarthritic pain” (SRZ Properties, Inc., priority 2005, published 2007)
Entries after “also recorded” stand apart in the source; their conditions may differ.

Legend:
[1] = test system: rat formalin paw test (late phase); experiment: Rat formalin paw test (late phase): number of flinches and licking time; assay type: in vivo, rat (Rj: Wistar (Han))
Description: Rats were given an intraplantar injection of 5% formalin (50 μl) into the posterior left paw. This treatment induces a recognizable flinching and licking response of the affected paw in control animals. The number of flinches was counted for 15 minutes, beginning 20 minutes after injection of formalin. The time spent licking the affected paw was also recorded.
Male Rj: Wistar (Han) rats, 10 per group, weighing 100-130 g at the beginning of the experiments were studied per group. The test was performed blind.
Lacosamide (20 mg/kg), gabapentin (50 and 100 mg/kg), combinations of lacosamide (20 mg/kg) with gabapentin (50 and 100 mg/kg), and vehicle were administered i.p. 10 minutes before injection of formalin.
Lacosamide (10 and 20 mg/kg), morphine (2 and 4 mg/kg), combinations of lacosamide (10 and 20 mg/kg) with morphine (2 and 4 mg/kg), and vehicle were administered i.p. 10 minutes before injection of formalin.
Lacosamide (10 mg/kg), duloxetine (8 mg/kg), a combination of lacosamide (10 mg/kg) with duloxetine (8 mg/kg), and vehicle were administered i.p. 10 minutes before injection of formalin.
Lacosamide (10 and 20 mg/kg), memantine (4 and 8 mg/kg), combinations of lacosamide (10 and 20 mg/kg) with memantine (4 and 8 mg/kg), and vehicle were administered i.p. 10 minutes before injection of formalin.
Lacosamide (10 and 20 mg/kg), naproxen (8 and 16 mg/kg), combinations of lacosamide (10 and 20 mg/kg) with […] (8 and 16 mg/kg), and vehicle were administered i.p. 10 minutes before injection of formalin. Morphine (8 mg/kg) was included as a comparative treatment.

[2] = test system: monosodium iodoacetate-induced tactile allodynia; experiment: Monosodium iodoacetate-induced tactile allodynia (von Frey filaments); assay type: in vivo, rat (Wistar)
[3] = test system: muscle pressure hyperalgesia induced by TNF; experiment: TNF-induced muscle pressure hyperalgesia (Randall-Selitto, withdrawal threshold to muscle pressure); assay type: in vivo, rat (Sprague Dawley); settings: for reversal of muscular mechanical hyperalgesia (withdrawal threshold to muscle pressure): 18 h after TNF i.m., 30 to 60 minutes after drug
Description: (§1) Adult male Sprague Dawley rats with a body weight of 250 g to 300 g were used (supplier: Charles River, Sulzfeld, Germany). Animals were group-housed (3 animals per cage) and maintained in a room with controlled temperature (21-22° C.) and a reversed light-dark cycle (12 h/12 h) with food and water available ad libitum. All experiments were approved by the Bavarian State animal experimentation committee and carried out in accordance with its regulations.
(§2) Recombinant rat tumor necrosis factor alpha (herein referred to as TNF) was obtained from R&D Systems, Minneapolis, Minn., U.S.A. TNF was diluted in 0.9% NaCl and used in a concentration of 1 μg in 50 μl. Injections were performed in short halothane narcosis with a 30 g needle bilaterally into the gastrocnemius or into the biceps brachii muscle. All rats were used to the behavioral tests before injections and baseline values were recorded over three test days.
Mechanical withdrawal thresholds to muscle pressure were measured with an analgesimeter (Ugo Basile, Comerio, Italy). The rat was allowed to crawl into a sock which helps the rat to relax. The hind limbs were positioned such that an increasing pressure could be applied onto the gastrocnemius muscle (maximum 250 g). The pressure needed to elicit withdrawal was recorded. Means of 3 trials for each hind limb were calculated (interstimulus interval of >30 sec). Only animals with a significant TNF effect were included for further analysis.
Rats were injected with TNF into the gastrocnemius muscle at 2 pm. Eighteen hours later, rats were tested for pressure hyperalgesia pre- and post-administration of the test drug. Rats were tested for pressure hyperalgesia 30 to 60 minutes after drug administration.
(§3) The rats, initially 10 per group, were treated with either 3, 10 or 30 mg/kg lacosamide, 2 mg/kg metamizol, 30 or 100 mg/kg pregabalin, 100 mg/kg gabapentin, or the NaCl vehicle, i.p. (intraperitoneally). Volume of i.p. injections was 0.5 ml. A pilot study was performed to confirm that i.m. (intramuscular) injection of 1 μg TNF into the gastrocnemius muscle was sufficient to induce pressure hyperalgesia.
(§4) Data are shown in graphs displaying means and standard errors of the means (SEM). Pre- and post-treatment data were compared using ANOVA (analysis of variance) and a Tukey post hoc test. Means of treatment groups were compared using a one-way ANOVA and Dunnett's post hoc test. Maximal possible effects (MPE) were calculated for all types of treatment.

[4] = test system: monosodium iodoacetate-induced mechanical hyperalgesia; experiment: Monosodium iodoacetate-induced mechanical hyperalgesia (Randall-Selitto paw pressure); assay type: in vivo, rat (Wistar)
[5] = test system: biceps muscle grip strength after TNF-induced muscle pain; experiment: Biceps muscle grip strength after TNF-induced muscle pain; assay type: in vivo, rat (Sprague Dawley); settings: for reversal of TNF-induced reduction of grip strength: 6 h after TNF i.m., 30 to 60 minutes after drug
Description: as §1, §2
Grip strength of the forelimbs was tested with a digital grip force meter (DFIS series, Chatillon, Greensboro, NC, U.S.A.). The rat was positioned to grab the grid with the forelimbs and was gently pulled so that the grip strength could be recorded. Means of three trials were calculated. The effect of the TNF treatment was calculated for each animal separately and only animals with a significant TNF effect were included for further analysis.
Rats were injected with TNF into the biceps brachii muscle at 8 am. Six hours later, grip strength of the forelimbs was tested with a digital grip force meter. Test drug was administered, and grip strength was again tested after 30 to 60 minutes.
as §3, §4

COC[C@@H](NC(C)=O)C(=O)NCc1ccccc1 [Lacosamide, (R)-2-acetamido-N-benzyl-3-methoxypropionamide]
Licking time % change (a) compared with vehicle control ([1]; Example 3, 20 mg/kg i.p. alone): −34% (a)
Licking time (seconds) mean ± SEM ([1]; Example 3, 20 mg/kg i.p. alone): 146.9 ± 23.8 NS (a) seconds
No. of flinches % change (a) compared with vehicle control ([1]; Example 3, 20 mg/kg i.p. alone): −33% (a)
No. of flinches mean ± SEM ([1]; Example 3, 20 mg/kg i.p. alone): 85.7 ± 14.3 NS (a)
decrease of the number of flinches as compared with vehicle controls ([1]; Example 3, 20 mg/kg i.p. alone): 33%
decrease of the time spent licking as compared with vehicle controls ([1]; Example 3, 20 mg/kg i.p. alone): 34%
Licking time % change (a) compared with vehicle control ([1]; Example 4, 10 mg/kg i.p. alone): −28% (a)
Licking time (seconds) mean ± SEM ([1]; Example 4, 10 mg/kg i.p. alone): 210.1 ± 22.7 (a) seconds
No. of flinches % change (a) compared with vehicle control ([1]; Example 4, 10 mg/kg i.p. alone): +22% (a)
No. of flinches mean ± SEM ([1]; Example 4, 10 mg/kg i.p. alone): 182.7 ± 25.9 NS (a)
decrease of the time spent licking as compared with vehicle controls ([1]; Example 4, 10 mg/kg i.p. alone): 28%
increase of the number of flinches as compared with vehicle controls ([1]; Example 4, 10 mg/kg i.p. alone): 22%
Licking time % change (a) compared with vehicle control ([1]; Example 4, 20 mg/kg i.p. alone): −56% (a)
Licking time (seconds) mean ± SEM ([1]; Example 4, 20 mg/kg i.p. alone): 128.2 ± 28.0 (a) seconds
No. of flinches % change (a) compared with vehicle control ([1]; Example 4, 20 mg/kg i.p. alone): −35% (a)
No. of flinches mean ± SEM ([1]; Example 4, 20 mg/kg i.p. alone): 97.2 ± 16.0 NS (a)
decrease of the number of flinches as compared with vehicle controls ([1]; Example 4, 20 mg/kg i.p. alone): 35%
decrease of the time spent licking as compared with vehicle controls ([1]; Example 4, 20 mg/kg i.p. alone): 56%
Licking time % change (a) compared with vehicle control ([1]; Example 5, 10 mg/kg i.p. alone): −30% (a)
Licking time (seconds) mean ± SEM ([1]; Example 5, 10 mg/kg i.p. alone): 185.2 ± 31.7 NS (a) seconds
No. of flinches % change (a) compared with vehicle control ([1]; Example 5, 10 mg/kg i.p. alone): +5% (a)
No. of flinches mean ± SEM ([1]; Example 5, 10 mg/kg i.p. alone): 158.2 ± 15.6 NS (a)
decrease of the time spent licking as compared with vehicle controls ([1]; Example 5, 10 mg/kg i.p. alone): 30%
effects on the number of flinches and the time spent licking ([1]; Example 5, 10 mg/kg i.p. alone): had no significant effects
Licking time % change (a) compared with vehicle control ([1]; Example 6, 10 mg/kg i.p. alone): −4% (a)
Licking time (seconds) mean ± SEM ([1]; Example 6, 10 mg/kg i.p. alone): 168.5 ± 23.9 NS (a) seconds
No. of flinches % change (a) compared with vehicle control ([1]; Example 6, 10 mg/kg i.p. alone): −31% (a)
No. of flinches mean ± SEM ([1]; Example 6, 10 mg/kg i.p. alone): 113.9 ± 23.2 NS (a)
decrease of the number of flinches as compared with vehicle controls ([1]; Example 6, 10 mg/kg i.p. alone): 31%
effect on the time spent licking as compared with vehicle controls ([1]; Example 6, 10 mg/kg i.p. alone): had no clear effects
Licking time % change (a) compared with vehicle control ([1]; Example 6, 20 mg/kg i.p. alone): −52% (a)
Licking time (seconds) mean ± SEM ([1]; Example 6, 20 mg/kg i.p. alone): 85.1 ± 19.1 (a) seconds
No. of flinches % change (a) compared with vehicle control ([1]; Example 6, 20 mg/kg i.p. alone): −48% (a)
No. of flinches mean ± SEM ([1]; Example 6, 20 mg/kg i.p. alone): 85.8 ± 14.4 (a)
decrease of the number of flinches as compared with vehicle controls ([1]; Example 6, 20 mg/kg i.p. alone): 48%
decrease of the time spent licking as compared with vehicle controls ([1]; Example 6, 20 mg/kg i.p. alone): 52%
Licking time % change (a) compared with vehicle control ([1]; Example 7, 10 mg/kg i.p. alone): −9% (a)
Licking time (seconds) mean ± SEM ([1]; Example 7, 10 mg/kg i.p. alone): 174.7 ± 20.4 NS (a) seconds
No. of flinches % change (a) compared with vehicle control ([1]; Example 7, 10 mg/kg i.p. alone): −13% (a)
No. of flinches mean ± SEM ([1]; Example 7, 10 mg/kg i.p. alone): 99.2 ± 16.6 NS (a)
effect on the time spent licking as compared with vehicle controls ([1]; Example 7, 10 mg/kg i.p. alone): had no clear effects
Licking time % change (a) compared with vehicle control ([1]; Example 7, 20 mg/kg i.p. alone): −59% (a)
Licking time (seconds) mean ± SEM ([1]; Example 7, 20 mg/kg i.p. alone): 78.9 ± 20.4 ***(a) seconds
No. of flinches % change (a) compared with vehicle control ([1]; Example 7, 20 mg/kg i.p. alone): −12% (a)
No. of flinches mean ± SEM ([1]; Example 7, 20 mg/kg i.p. alone): 100.3 ± 22.3 NS (a)
decrease of the time spent licking as compared with vehicle controls ([1]; Example 7, 20 mg/kg i.p. alone): 59%
effect on the number of flinches as compared with vehicle controls ([1]; Example 7, 10 and 20 mg/kg i.p. alone): did not clearly affect
tactile allodynia of iodoacetate-treated rats (von Frey) ([2]; day 3, 30 mg/kg p.o., 60 minutes before test): improved tactile allodynia
tactile allodynia of iodoacetate-treated rats (von Frey) ([2]; day 7, 30 mg/kg p.o., 60 minutes before test): improved tactile allodynia
tactile allodynia of iodoacetate-treated rats (von Frey) ([2]; day 14, 30 mg/kg p.o., 60 minutes before test): not on day 14
tactile allodynia of iodoacetate-treated rats (von Frey) ([2]; lower doses (3 and 10 mg/kg p.o.)): showed a trend for such improvement
MPE (maximal possible effect) on muscle pressure hyperalgesia, compared with vehicle ([3]; 10 mg/kg i.p.): significantly different from vehicle
MPE (maximal possible effect) on muscle pressure hyperalgesia, compared with vehicle ([3]; 30 mg/kg i.p.): significantly different from vehicle
reversal of muscular mechanical hyperalgesia (withdrawal threshold to muscle pressure) ([3]; 30 mg/kg i.p.): full reversal
reversal of muscular mechanical hyperalgesia (withdrawal threshold to muscle pressure) ([3]; 30 mg/kg i.p., listed as lacosamide): complete reversal
muscle hyperalgesia induced by TNF injection in the paw pressure test, dose dependence ([3]; 3, 10 and 30 mg/kg i.p.): dose-dependently improved
paw pressure withdrawal threshold compared to iodoacetate/vehicle treated animals (mechanical hyperalgesia) ([4]; day 3, 3 mg/kg p.o.): increase in paw pressure withdrawal threshold
mechanical hyperalgesia (paw pressure withdrawal threshold) ([4]; day 7, 3 mg/kg p.o.): reduced mechanical hyperalgesia
mechanical hyperalgesia (paw pressure withdrawal threshold) ([4]; day 7, 10 mg/kg p.o.): reduced mechanical hyperalgesia
mechanical hyperalgesia (paw pressure withdrawal threshold) ([4]; day 7, 30 mg/kg p.o.): reduced mechanical hyperalgesia
mechanical hyperalgesia (paw pressure withdrawal threshold) ([4]; day 14, 10 mg/kg p.o.): did not show a statistically significant effect
mechanical hyperalgesia during the post-inflammatory period ([4]; p.o., overall conclusion): inhibited mechanical hyperalgesia
MPE (maximal possible effect) on biceps muscle grip strength, compared with vehicle ([5]; 10 mg/kg i.p.): significantly different from vehicle
reversal of TNF-induced reduction of grip strength ([5]; 10 mg/kg i.p.): significant reversal; also recorded: reversed the effect of TNF on the muscle
MPE (maximal possible effect) on biceps muscle grip strength, compared with vehicle ([5]; 30 mg/kg i.p.): significantly different from vehicle
reversal of TNF-induced reduction of grip strength ([5]; 30 mg/kg i.p.): significant reversal
